“And” between values parts separate entries of the source, which are not always exact repeats. Identical values can stand only once. “Also recorded” adds a separate entry of the source.
How the values were obtained:
[1] = test system: 66 c1.4 GFP murine mammary tumor cells; test: Tumor growth of 66 c1.4-GFP mammary tumor cells in Balb/c mice (tumor volume); conditions: for inhibition of tumor growth: Example 18: liposomal formulation by aerosol; for reduction of mean tumor volume vs aerosol control: Example 25: liposomal α-TEA/aerosol
Procedure: 66 c1.4-GFP cells were harvested by trypsinization, centrifuged, resuspended in McCoy's media, containing no supplements at a density of 2×10^5/100 μl. Mice were injected in the inguinal area at a point equal distance between the 4th and 5th nipples on the right side using a 23 gauge needle.
50 mice were assigned (10 per group) to aerosol treatment, aerosol control, oral treatment, oral control, or to the no treatment group so that the average tumor volume for all groups were closely matched. […] Tumors were measured using calipers every other day, and volumes were calculated using the formula: volume (mm^3) [width (mm)^2×length (mm)]/2. Body weights were determined weekly.
Balb/c mice were injected with 200,000 66 c1.4 GFP cells subcutaneous in the mammary fat pad area between the 4th and 5th nipple on the right side of the body.
Mice are injected with 200,000 66 c1.4 GFP murine mammary tumor cells as described on day 0. Treatments are initiated on day 9 when tumors reached 1-3 mm in size. Aerosol treatments of α-TEA liposomes (5 mg α-TEA/mouse) are administered daily for 16 days (FIG. 8). Data represent the mean+/−Standard Error (SE), N=10 mice for control and treatment groups.
Balb/c mice were injected s.c. with 2×10^5 66 c1.4-GFP cells in the inguinal area between the 4th and 5th nipple on the right side of the body. When tumors reached 2×2-4×4 mm (9 days after tumor injection), mice were placed into 5 groups ((Group 1: untreated control, Group 2: liposome/aerosol control, Group 3: liposomal α-TEA aerosol treatment, Group 4: peanut oil/gavage control, Group 5: α-TEA in peanut oil/gavage treatment) of 10 mice/group) such that the mean tumor volume of each group was closely matched. Daily treatments were initiated on day 9 after tumor injection.
Balb/c mice were injected with 200,000 66 c1.4 GFP cells subcutaneous in the mammary fat pad area between the 4th and 5th nipple on the right side of the body. […] Animals were treated with α-TEA in liposome, vitamin E succinate in liposome, or control liposome alone via aerosol, 7 days per week, for 21 days. Animals were given 75 mg compound via nebulization per day such that each animal received 36 μg compound per day.
The size of the tumors, 9-21 days after injection of 200,000 66 c1.4 GFP cells between the 4th and 5th nipple on the right side of each mouse, is determined. Treatments are initiated on day 9 after tumor inoculation. Each group consists of n=10+/−SE. Gavage Treatment=Treatments of 5 mg of α-TEA in ethanol and peanut oil (0.1 ml volume) are administered daily starting on day 9 after tumor inoculation and continuing through day 21. Gavage Control=Mice received peanut oil and ethanol alone (0.1 ml volume)/daily, starting on day 9 after tumor inoculation and continuing through day 21. Data (tumor size) are depicted as the mean+/−standard error for days 9, 11, 13, 15, 17, 19, and 21.
Balb/c mice were injected with 200,000 66 c1.4 GFP cells subcutaneous in the mammary fat pad area between the 4th and 5th nipple on the right side of the body. […] Animals were treated with α-TEA in liposome vitamin E succinate in liposome, or control liposome alone via oral gavage, 2 times per day, 7 days per week, for 21 days. Animals were given a total of 6 mg compound per day.

66 c1.4-GFP cells [2] = test: Colony-forming assay; conditions: 10 days
Procedure: 66 c1.4-GFP cells were seeded at 600 cells per 35×10 mm tissue culture plate (Nunclon, Rochester, N.Y.) and allowed to adhere over night at 37° C. […] Treatments were left on the cells for 10 days without change of media. After 10 days, media were removed and plates were washed with PBS three times. Cells were stained for 30 min with 1% methylene blue in PBS and colonies >0.5 mm manually counted.

[3] = test system: cp-70 human ovarian cancer cells; test: Apoptosis in cp-70 ovarian cancer cells in vitro; type: cell-based; conditions: treated in culture
[4] = test system: A2780 cisplatin-sensitive cell line; test: Apoptosis in A2780 ovarian cancer cells in vitro; type: cell-based, human; conditions: treated in culture
[5] = AeroTech II nebulizer; geometric standard deviation 2.04
Procedure: Aerosol was administered to mice as previously described (17).

66 c1.4-GFP cells [6] = test: Apoptosis by morphological evaluation of DAPI-stained nuclei; conditions: three days; for nuclear morphology of DAPI stained cells: 10 μg/ml
Procedure: Briefly, 1×10^5 cells/well in 12-well plates were cultured overnight to permit attachment. […] After treatment, floating cells plus scraped-released adherent cells were pelleted by centrifugation for 5 min at 350×g, washed one time with phosphate buffered saline (PBS; 137 mM NaCl, 2.7 mM KCL, 10.4 mM Na2HPO4, 10.5 mM KH2PO4; pH 7.2), and stained with 2 μg/ml of 4′,6-diamidino-2-phenylindole dihydrochloride (DAPI, Boehringer Mannheim, Indianapolis, Ind.) in 100% methanol for 15 min at 37° C.
Cells were viewed at 400× magnification with a Zeiss ICM 405 fluorescent microscope using a 487701 filter. […] Data are reported as percentage of apoptotic cells per cell population, i.e., number apoptotic cells/total number of cells counted. Three different microscopic fields were examined and 200 cells counted at each location for a minimum of 600 cells counted per slide. Apoptotic data are presented as mean±S.D. for three independently conducted experiments.

MDA-MB-435 GFP FL cells = test: Tumor growth of MDA-MB-435 GFP FL breast cancer cells in nude mice; type: in vivo, Nu/Nu athymic nude mice; conditions: for reduction of tumor growth: Example 32: liposome gavage, 8 mg per day
Procedure: Animals were given a total of 8 mg compound per day. […] Alpha-TEA liposome gavage reduced tumor growth by 68, 75, 78, 79 and 79% on days 27, 29, 31, 33, and 35, respectively (FIG. 15).
Animals were […] 3 ppm methylselenocysteine (MSC) in water, α-TEA in liposome via aerosol, or gavaged 10 mg/kg b.w. trans-resveratrol (t-RES) in first 1:1. EtOH:physiological saline, and starting at day 24, 6.5% EtOH and 93.5% Neobee oil. A combination group was treated with each of the above three compounds, and a control group was treated with aerosolized liposome. 100 μl water, and 50 μl of the t-Res solvent. Animals were treated seven days a week, for 35+ days.

[7] = test system: 66 c1.4 GFP murine mammary tumor cells; test: Lung and lymph node metastases of 66 c1.4-GFP tumors in Balb/c mice; type: in vivo
Source text: Metastastic lesions in the five lung lobes were counted visually at time of sacrifice. Fluorescent green micro-metastatic cancer cell colonies in the left lung lobe and lymph nodes were counted using a Nikon fluorescence microscope (TE-200) with a 20×objective (200× magnification) and Image-Pro Plus (version 4.1; Media Cybernetics, Silver Spring, Md.) software associated with the microscope. Fluorescent lesions were separated into three size grouping: <5 μm, 5-10 μm and >10 μm.
At sacrifice, lungs were taken, examined visually for metastatic lesions and frozen for analyses of micrometastases by fluorescence.
Use of a Nikon fluorescence microscope and Image-Pro Plus software permitted measurement of green fluorescing micrometastases into three size groupings of <5 μm, 5-10 μm and >10 μm.
At sacrifice, the left lung lobe of each mouse of flash frozen and saves for detection of GFP expressing micrometatstic lesions via fluorescent microscopy.

[8] = Aerosol characteristics: estimated α-TEA deposited in respiratory tract (HPLC, All Glass Impinger); design: species or system mouse; conditions: liposomal aerosol, 15 min, estimated deposited fraction 30%
Procedure: HPLC analyses were conducted on α-TEA liposomes recovered from aerosol in the All Glass Impinger (Ace Glass Co., Vineland, N.J.). The delivered dosage=concentration (μg/L)×mouse minute volume (1-min/kg)×duration of delivery (min)×estimated deposited fraction (30%; 17).

[9] = test system: Poly (ADP-Ribose) Polymerase (PARP) cleavage in 66 c1.4-GFP cells; test: Western immunoblot detection of PARP cleavage fragment; type: cell-based, mouse; conditions: 48 hours
Procedure: Poly (ADP-Ribose) Polymerase cleavage was analyzed as an alternate method for detecting apoptosis. 66 c1.4-GFP cells were treated as described above for the DAPI assay. Following the PBS wash, cells were suspended in lysis buffer (1×PBS, 1% Nonidet P-40, 0.5% sodium deoxycholate, 0.1% sodium dodecyl sulfate (SDS), 1 μg/ml leupeptin, 1 μg/ml aprotinin, 1 mM dithiothreitol (DTT), 2 mM sodium orthovanadate, 10 μg/ml phenylmethylsulfonyl fluoride (PMSF)) for 30 min at 4° C., vortexed, and supernatants collected by centrifugation at 15,000×g for 20 min. Protein concentrations were determined using the Bio-Rad (Bradford) protein assay (Bio-Rad Laboratories, Hercules, Calif.), and samples (100 μg/lane) resolved on 7.5% SDS-polyacrylamide gels electrophoresed under reducing conditions.
Proteins were electroblotted onto a nitrocellulose membrane ([…] Optitran BA-S-supported nitrocellulose; Schleicher and Schuell, Keene, N.H.). After transfer, membranes were blocked with blocking buffer [25 mM Tris-HCl (pH 8.0), 125 mM NaCl, 0.5% Tween-20, and 5% non-fat dry milk] for 45 min at room temperature. Immunoblotting was performed using 1 μg of primary rabbit anti-human Poly (ADP-Ribose) Polymerase antibody [PARP (H-250), Santa Cruz Biotechnology, Santa Cruz, Calif.], and horseradish peroxidase-conjugated goat anti-rabbit immunoglobulin was used as the secondary antibody (Jackson Immunoresearch Laboratory, West Grove, Pa.) at a 1:3,000 dilution. Horseradish peroxidase-labeled bands from washed blots were detected by enhanced chemiluminescence (Pierce, Rockford, Ill.) and autoradiography (Kodak BioMax film; Rochester, N.Y.).

[10] = Serum and tissue levels of α-TEA after liposomal aerosol (HPLC); type: in vivo, mice
Procedure: Eight mice are treated via pulmonary aerosol delivery with 40 mg of α-TEA (5 mg/mouse) in 6 ml liposomes. The mice inhaled the aerosol over a period of 30 minutes until delivery was complete. Mice are sacrificed 0, 2, 6, or 24 hours after the treatment ended. Serum and tissue levels of α-TEA are determined by HPLC analyses (FIG. 7).

[11] = Body weight and long term safety in Balb/c mice; type: in vivo
Procedure: Body weights were determined weekly.
Nine days after tumor inoculation, treatments groups are initiated: Aerosol Treatment (TX)=aerosol delivery of α-TEA liposome (5 mg/mouse)/daily through day 23. Aerosol Control=Aerosol delivery of liposome composition only daily through day 23. Gavage treatment=gavage administration of α-TEA at 5 mg/mouse in ethanol/peanut oil daily through day 23. Gavage control=gavage administration of ethanol/peanut oil only through day 23. Mice were weighed at the initiation of treatment (day 9) and thereafter on days 13, 16, 20, and 23 (FIG. 6). Data are presented as the mean+/−standard deviation.

[12] = after thirty minutes, intramuscular delivery; cited from earlier work
[13] = 75 mg in nebulizer/day, day 15 of treatment
[14] = 75 mg in nebulizer/day, day 17 of treatment
[15] = Example 18: liposomal preparation delivered by aerosol
[16] = Example 31: liposomal formulation via gavage, 6 mg per day
[17] = Example 33: liposomal aerosol, α-TEA 5 mg/d, 9NC 2 μg/d in nebulizer, listed as Lip/α-TEA
[18] = liposomal aerosol, at sacrifice

CC(=O)Oc1c(C)c(C)c2c(c1C)CCC(C)(CCCC(C)CCCC(C)CCCC(C)C)O2 (racemic) [dl-α tocopherol acetate, dl-α-tocopherol acetate]
inhibition of tumor growth [1, 13]: 29% | inhibition of tumor growth [1, 14]: 57%

Cc1c(C)c2c(c(C)c1O)CC[C@@](C)(CCC[C@H](C)CCC[C@H](C)CCCC(C)C)O2 [RRR-α tocopherol, RRR-α-tocopherol]
effect on tumor growth [1, 15]: enhanced tumor growth | tumor volume compared with control mice [1, 15]: not significantly greater

CC(C)=CCC/C(C)=C/CC/C(C)=C/CC[C@]1(C)CCc2c(C)c(O)c(C)c(C)c2O1 [RRR-α-tocotrienol]
inhibition of tumor growth [1, 13]: 34% | inhibition of tumor growth [1, 14]: 27%

Cc1c(C)c2c(c(C)c1OCC(=O)O)CC[C@@](C)(CCC[C@H](C)CCC[C@H](C)CCCC(C)C)O2 [α-TEA, 2,5,7,8-tetramethyl-(2R-(4R,8R,12-trimethyltridecyl)chroman-6-yloxy) Acetic Acid]
decrease of colony formation compared to EtOH control (66 c1.4-GFP cells [2]; 1.25 μg/ml): 30% | colony formation (66 c1.4-GFP cells [2]; 5 μg/ml): No colonies formed | colony formation (66 c1.4-GFP cells [2]; 10 μg/ml): No colonies formed | induction of apoptosis [3]: undergo apoptosis | induction of apoptosis [4]: undergo apoptosis | mass median aerodynamic diameter of liposome aerosol [5]: 2.01 μm | apoptosis (percentage of apoptotic cells) (66 c1.4-GFP cells [6]; 2.5 μg/ml): 5% | apoptosis (percentage of apoptotic cells) (66 c1.4-GFP cells [6]; 5 μg/ml): 6% | nuclear morphology of DAPI stained cells (66 c1.4-GFP cells [6]): exhibited condensation and fragmented DNA | reduction of tumor growth (MDA-MB-435 GFP FL cells; day 27): 68% | reduction of tumor growth (MDA-MB-435 GFP FL cells; day 29): 75% | reduction of tumor growth (MDA-MB-435 GFP FL cells; day 31): 78% | reduction of tumor growth (MDA-MB-435 GFP FL cells; day 33): 79% | reduction of tumor growth (MDA-MB-435 GFP FL cells; day 35): 79% | decrease of tumor volume from the control (MDA-MB-435 GFP FL cells; Example 35: day 35): 47.8% | lymph node micrometastatic lesions (average) [7, 16]: 3.1±0.8 | Inhibition (%) Metastases Lung [7, 17]: 71% | Inhibition (%) Metastases Lymphnode [7, 17]: 94% | Inhibition (%) Metastases Lung ([7]; Liposomal, Aerosol, 5 mg/d, vs aerosol control): 81% | Inhibition (%) Metastases Lung ([7]; Liposomal, Gavage, 3 mg/2× d): 59% | Inhibition (%) Metastases Lymphnode ([7]; Liposomal, Gavage, 3 mg/2× d): 56% | No. Animals/Group with Visible Lung Metastases [7, 18]: 0/10 | No. Visible Lung Tumor Foci/Animal [7, 18]: No visible tumors | No. Visible Lung Tumor Foci/Animal ([7]; liposomal aerosol, at sacrifice, listed as Aer./Liposome/α-TEA): 0 | α-TEA deposited in the respiratory tract of each mouse each day [8]: approximately 36 μg and ~36 μg | PARP cleavage (84 kDa fragment) ([9]; 5 μg/ml): only intact PARP protein was detected | PARP cleavage (84 kDa fragment) ([9]; 10 μg/ml): evident | PARP cleavage (84 kDa fragment) ([9]; 20 μg/ml): evident | serum and tissue presence of α-TEA ([10]; liposomal aerosol 5 mg/mouse over 30 minutes, 0 hours after treatment ended): found only in the stomach tissue | serum and tissue presence of α-TEA ([10]; liposomal aerosol 5 mg/mouse, 2 hours after completion of treatment): present in the serum and stomach | serum and tissue presence of α-TEA ([10]; liposomal aerosol 5 mg/mouse, 6 hours after completion of treatment): present in the liver and stomach | serum and tissue presence of α-TEA ([10]; liposomal aerosol 5 mg/mouse, 24 hours after completion of treatment): present in the liver and stomach | long term adverse effects ([11]; non-tumor bearing mice, aerosol or gavage for 17 days, kept eleven months): did not show any adverse effects | body weight vs control groups ([11]; tumor-bearing mice, liposome aerosol or gavage in ethanol/peanut oil, 5 mg/mouse daily): no significant weight differences; also recorded: No differences in mean body weights | reduction of mean tumor volume vs aerosol control ([1]; day 13 of treatment): 50% | reduction of mean tumor volume vs aerosol control ([1]; day 17 of treatment): 61% | reduction of tumor growth ([1]; Example 26: liposome aerosol, 75 mg in nebulizer/day, day 21): 67% | tumor weights vs gavage control ([1]; Example 27: gavage, 5 mg in ethanol and peanut oil daily, days 9-21): no significant differences | mean tumor volume vs gavage control ([1]; Example 28: gavage, 5 mg/day/mouse EtoH/peanut oil formulation): did not differ | reduction of tumor growth ([1]; Example 30: liposome gavage, 6 mg per day, day 15): 85% | reduction of tumor growth ([1]; Example 30: liposome gavage, 6 mg per day, day 17): 85% | reduction of tumor growth ([1]; Example 30: liposome gavage, 6 mg per day, day 21): 70% | Inhibition (%) Tumor Growth [1, 17]: 65% | Inhibition (%) Tumor Growth ([1]; Liposomal, Gavage, 3 mg/2× d): 70%

Cc1c(O)cc2c(c1C)O[C@](C)(CCC[C@H](C)CCC[C@H](C)CCCC(C)C)CC2 [RRR-γ tocopherol, RRR-γ-tocopherol]
effect on tumor growth [1, 15]: enhanced tumor growth | tumor volume compared with control mice [1, 15]: significantly higher

CC[C@@]1(O)C(=O)OCc2c1cc1n(c2=O)Cc2cc3c([N+](=O)[O-])cccc3nc2-1 [9-nitrocamptothecin, reference compound]
Levels of 9-nitrocamptothecin in the brain [12]: 0 | Inhibition (%) Metastases Lymphnode ([7]; Example 33: liposomal aerosol, α-TEA 5 mg/d, 9NC 2 μg/d in nebulizer, listed as Lip/9NC): 60%

Cc1cc(O)cc2c1O[C@](C)(CCC[C@H](C)CCC[C@H](C)CCCC(C)C)CC2 [RRR-delta tocopherol, RRR-delta-tocopherol]
inhibition of tumor growth [1, 13]: 25% | inhibition of tumor growth [1, 14]: 40%

Oc1ccc(/C=C/c2cc(O)cc(O)c2)cc1 [t-RES, trans-resveratrol, reference compound]
increase of tumor volume from the control (MDA-MB-435 GFP FL cells; Example 35: day 35): 61.2%

Cc1c(C)c2c(c(C)c1OC(=O)CCC(=O)O)CC[C@@](C)(CCC[C@H](C)CCC[C@H](C)CCCC(C)C)O2 [vitamin E succinate, RRR-α-tocopheryl succinate, reference compound]
apoptosis (percentage of apoptotic cells) (66 c1.4-GFP cells [6]; 2.5 μg/ml): 3% | apoptosis (percentage of apoptotic cells) (66 c1.4-GFP cells [6]; 5 μg/ml): 5% | nuclear morphology of DAPI stained cells (66 c1.4-GFP cells [6]): exhibited condensation and fragmented DNA | effect on lung metastasis [7, 16]: no effect on lung metastasis | effect on lymph node micrometastatic lesions (FIG. 14B) [7, 16]: not effective | reduction of tumor growth ([1]; Example 26: liposome aerosol, 75 mg in nebulizer/day, day 17): 76% | effect on tumor growth ([1]; Example 30: liposome gavage, 6 mg per day, 21 days): did not reduce tumor growth
